Laboratory results reported in publication PMC4979471 (Cell Death Discovery, 2015).
Where two headings read alike, the source gives them in different places.

Legend:
Assay in all cases: Kinase selectivity, P33-radiolabeled assay
Type in all cases: biochemical
Details in all cases: 10 μM ATP
[1] = molecular target: T1, CDK5/p35 (Homo sapiens, UniProt Q00535)
T1 construct: purchased Reaction Biology Corp
Method in brief: (§1)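 Values show % enzyme activity normalised to DMSO vehicle. They come from one 10 μM compound concentration run twice, at an ATP level of 10 μM.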

[2] = molecular target: T2, CDK6/cyclin D3 (Homo sapiens, UniProt Q00534)
T2 construct: purchased Reaction Biology Corp
T2 sequence (Q00534 whole entry): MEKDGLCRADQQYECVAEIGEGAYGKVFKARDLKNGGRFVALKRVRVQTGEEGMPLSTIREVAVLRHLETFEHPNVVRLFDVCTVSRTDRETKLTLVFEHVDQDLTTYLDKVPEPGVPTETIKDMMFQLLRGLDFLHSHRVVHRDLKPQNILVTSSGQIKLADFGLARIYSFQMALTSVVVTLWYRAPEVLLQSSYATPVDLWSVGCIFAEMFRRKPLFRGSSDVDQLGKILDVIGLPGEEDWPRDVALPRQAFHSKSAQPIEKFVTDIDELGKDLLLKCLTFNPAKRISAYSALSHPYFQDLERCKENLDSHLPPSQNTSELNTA
T2 sequence (P30281 whole entry partner): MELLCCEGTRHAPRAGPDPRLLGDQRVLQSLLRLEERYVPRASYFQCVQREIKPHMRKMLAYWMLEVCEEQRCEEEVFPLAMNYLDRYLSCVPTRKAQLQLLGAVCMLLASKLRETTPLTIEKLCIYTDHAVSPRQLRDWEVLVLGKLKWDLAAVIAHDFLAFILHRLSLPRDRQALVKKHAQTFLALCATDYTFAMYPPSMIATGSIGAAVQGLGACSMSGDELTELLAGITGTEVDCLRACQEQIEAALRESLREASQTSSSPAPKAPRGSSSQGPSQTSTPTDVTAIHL
Method in brief: as §1

[3] = molecular target: T3, EPHA8 (Homo sapiens, UniProt P29322)
T3 construct: purchased Reaction Biology Corp
T3 sequence (P29322 28-1005): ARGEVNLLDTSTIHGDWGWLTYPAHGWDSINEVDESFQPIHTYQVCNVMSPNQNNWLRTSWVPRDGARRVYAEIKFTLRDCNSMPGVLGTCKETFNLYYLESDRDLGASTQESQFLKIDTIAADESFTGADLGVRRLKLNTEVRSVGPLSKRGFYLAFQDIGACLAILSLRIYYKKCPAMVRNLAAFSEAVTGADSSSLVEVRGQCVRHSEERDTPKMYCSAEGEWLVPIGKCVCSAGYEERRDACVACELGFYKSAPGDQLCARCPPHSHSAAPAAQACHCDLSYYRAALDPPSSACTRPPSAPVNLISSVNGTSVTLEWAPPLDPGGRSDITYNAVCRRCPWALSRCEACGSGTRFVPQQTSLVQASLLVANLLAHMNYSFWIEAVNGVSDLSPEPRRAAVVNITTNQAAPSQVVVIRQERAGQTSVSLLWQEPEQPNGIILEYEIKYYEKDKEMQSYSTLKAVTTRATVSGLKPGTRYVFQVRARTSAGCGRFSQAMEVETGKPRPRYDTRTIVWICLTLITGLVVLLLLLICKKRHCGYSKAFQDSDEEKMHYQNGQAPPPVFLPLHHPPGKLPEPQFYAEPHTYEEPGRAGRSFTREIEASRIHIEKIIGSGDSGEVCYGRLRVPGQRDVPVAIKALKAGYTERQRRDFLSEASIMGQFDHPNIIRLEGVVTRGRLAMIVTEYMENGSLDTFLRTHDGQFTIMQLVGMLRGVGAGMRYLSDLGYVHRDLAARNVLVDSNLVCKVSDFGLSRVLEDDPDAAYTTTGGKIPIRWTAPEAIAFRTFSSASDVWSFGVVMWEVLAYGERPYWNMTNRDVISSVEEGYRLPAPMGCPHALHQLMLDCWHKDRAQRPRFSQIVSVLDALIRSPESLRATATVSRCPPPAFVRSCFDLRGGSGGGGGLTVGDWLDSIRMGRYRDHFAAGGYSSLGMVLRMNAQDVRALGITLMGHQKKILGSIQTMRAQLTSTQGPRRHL
Method in brief: as §1

[4] = molecular target: T4, ERBB4/HER4 (Homo sapiens, UniProt Q15303)
T4 construct: purchased Reaction Biology Corp
T4 sequence (Q15303 26-1308): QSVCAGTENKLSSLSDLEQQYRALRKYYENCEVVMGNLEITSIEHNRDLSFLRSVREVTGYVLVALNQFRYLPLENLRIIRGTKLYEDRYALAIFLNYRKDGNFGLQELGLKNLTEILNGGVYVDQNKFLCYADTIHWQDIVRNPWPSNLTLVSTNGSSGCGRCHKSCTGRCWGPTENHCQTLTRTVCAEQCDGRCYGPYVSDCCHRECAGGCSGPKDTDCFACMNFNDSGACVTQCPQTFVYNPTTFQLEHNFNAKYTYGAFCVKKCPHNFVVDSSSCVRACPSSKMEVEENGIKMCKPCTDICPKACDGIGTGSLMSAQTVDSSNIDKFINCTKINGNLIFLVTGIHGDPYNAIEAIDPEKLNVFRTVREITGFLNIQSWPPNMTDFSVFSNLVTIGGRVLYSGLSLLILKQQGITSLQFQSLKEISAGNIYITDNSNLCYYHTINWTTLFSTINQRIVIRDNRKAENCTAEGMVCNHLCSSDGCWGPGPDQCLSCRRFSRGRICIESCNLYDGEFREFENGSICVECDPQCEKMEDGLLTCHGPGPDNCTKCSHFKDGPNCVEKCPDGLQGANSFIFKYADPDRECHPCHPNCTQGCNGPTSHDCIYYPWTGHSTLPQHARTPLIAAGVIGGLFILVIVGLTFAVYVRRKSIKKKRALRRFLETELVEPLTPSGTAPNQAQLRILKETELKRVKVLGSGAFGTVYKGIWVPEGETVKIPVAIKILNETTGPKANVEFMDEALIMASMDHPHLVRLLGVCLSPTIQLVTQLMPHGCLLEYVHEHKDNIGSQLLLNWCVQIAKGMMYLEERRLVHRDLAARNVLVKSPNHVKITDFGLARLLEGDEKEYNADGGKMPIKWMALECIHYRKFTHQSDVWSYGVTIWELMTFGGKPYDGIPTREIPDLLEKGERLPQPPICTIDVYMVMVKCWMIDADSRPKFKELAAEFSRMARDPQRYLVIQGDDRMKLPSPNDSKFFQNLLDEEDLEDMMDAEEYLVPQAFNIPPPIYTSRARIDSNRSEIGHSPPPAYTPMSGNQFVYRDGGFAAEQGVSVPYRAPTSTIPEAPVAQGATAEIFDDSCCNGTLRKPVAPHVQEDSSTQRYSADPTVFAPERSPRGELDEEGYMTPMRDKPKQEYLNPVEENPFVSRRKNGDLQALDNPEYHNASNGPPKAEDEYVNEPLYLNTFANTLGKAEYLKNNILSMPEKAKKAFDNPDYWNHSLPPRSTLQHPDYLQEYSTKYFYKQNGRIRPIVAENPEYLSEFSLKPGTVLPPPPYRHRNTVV
Method in brief: as §1

[5] = molecular target: T5, NEK9 (Homo sapiens, UniProt Q8TD19)
T5 construct: purchased Reaction Biology Corp
T5 sequence (Q8TD19 1-979): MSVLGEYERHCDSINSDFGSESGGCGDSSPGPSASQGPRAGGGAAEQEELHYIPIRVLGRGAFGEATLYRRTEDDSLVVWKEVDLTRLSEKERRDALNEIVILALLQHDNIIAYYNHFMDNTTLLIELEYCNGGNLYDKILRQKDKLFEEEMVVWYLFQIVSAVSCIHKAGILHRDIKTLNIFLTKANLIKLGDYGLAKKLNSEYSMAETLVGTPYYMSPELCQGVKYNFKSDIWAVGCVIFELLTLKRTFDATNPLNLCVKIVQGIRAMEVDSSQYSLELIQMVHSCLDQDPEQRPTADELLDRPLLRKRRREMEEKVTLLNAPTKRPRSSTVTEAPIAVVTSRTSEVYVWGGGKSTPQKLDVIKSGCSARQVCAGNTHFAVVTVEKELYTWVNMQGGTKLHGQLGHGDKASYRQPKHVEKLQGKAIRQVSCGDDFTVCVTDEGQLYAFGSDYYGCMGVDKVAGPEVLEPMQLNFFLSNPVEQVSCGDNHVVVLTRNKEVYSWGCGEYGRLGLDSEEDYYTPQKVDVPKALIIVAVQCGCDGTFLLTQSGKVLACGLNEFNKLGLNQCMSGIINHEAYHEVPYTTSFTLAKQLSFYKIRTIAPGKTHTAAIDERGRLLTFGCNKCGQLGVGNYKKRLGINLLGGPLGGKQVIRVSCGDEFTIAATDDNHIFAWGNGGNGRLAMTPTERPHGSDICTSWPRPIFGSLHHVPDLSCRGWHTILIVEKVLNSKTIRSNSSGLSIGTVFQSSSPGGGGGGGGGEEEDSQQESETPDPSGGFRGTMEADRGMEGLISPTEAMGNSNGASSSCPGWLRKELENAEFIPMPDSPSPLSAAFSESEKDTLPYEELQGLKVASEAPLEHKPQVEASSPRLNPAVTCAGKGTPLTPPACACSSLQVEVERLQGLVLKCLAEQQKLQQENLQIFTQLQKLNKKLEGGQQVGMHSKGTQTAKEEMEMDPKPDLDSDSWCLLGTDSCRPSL
Method in brief: as §1

[6] = read-out: % Enzyme Activity (relative to DMSO controls) AVG
[7] = read-out: % Enzyme Activity (relative to DMSO controls) Data 1
[8] = read-out: % Enzyme Activity (relative to DMSO controls) Data 2

T1 sequence (Q00535 whole entry): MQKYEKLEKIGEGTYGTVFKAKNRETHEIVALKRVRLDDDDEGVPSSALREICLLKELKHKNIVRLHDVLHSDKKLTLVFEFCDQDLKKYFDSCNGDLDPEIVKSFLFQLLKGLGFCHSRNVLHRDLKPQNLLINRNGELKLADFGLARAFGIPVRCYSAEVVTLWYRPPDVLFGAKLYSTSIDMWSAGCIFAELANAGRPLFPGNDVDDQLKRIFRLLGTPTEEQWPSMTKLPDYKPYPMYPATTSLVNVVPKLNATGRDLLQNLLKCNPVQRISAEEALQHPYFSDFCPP
T1 sequence (Q15078 whole entry partner): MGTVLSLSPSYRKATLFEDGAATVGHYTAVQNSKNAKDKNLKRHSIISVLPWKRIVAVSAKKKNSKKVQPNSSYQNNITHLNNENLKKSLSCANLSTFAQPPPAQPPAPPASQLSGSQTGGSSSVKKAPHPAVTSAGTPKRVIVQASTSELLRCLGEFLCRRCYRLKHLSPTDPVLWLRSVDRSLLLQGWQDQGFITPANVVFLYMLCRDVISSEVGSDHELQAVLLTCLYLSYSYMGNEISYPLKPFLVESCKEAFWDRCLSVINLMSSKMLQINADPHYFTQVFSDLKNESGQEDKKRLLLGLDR

SMILES: CC(C)(C)C(=O)N1N=CC[C@H]1c1ccccc1 [GSK′963]
- remaining activity at 10 µM [1, 6]: 96.2%
- remaining activity at 10 µM [1, 7]: 95.5%
- remaining activity at 10 µM [1, 8]: 97%
- remaining activity at 10 µM [2, 6]: 86.9%
- remaining activity at 10 µM [2, 7]: 84.5%
- remaining activity at 10 µM [2, 8]: 89.3%
- remaining activity at 10 µM [3, 6]: 96.6%
- remaining activity at 10 µM [3, 7]: 97.5%
- remaining activity at 10 µM [3, 8]: 95.7%
- remaining activity at 10 µM [4, 6]: 102%
- remaining activity at 10 µM [4, 7]: 101%
- remaining activity at 10 µM [4, 8]: 104%
- remaining activity at 10 µM [5, 6]: 92.8%
- remaining activity at 10 µM [5, 7]: 92.1%
- remaining activity at 10 µM [5, 8]: 93.5%
